This is an account of results in ChEMBL document CHEMBL1201862, “PubChem BioAssay data set” (2004).

Assay [1] addresses T1, Apoptotic protease-activating factor 1 (Homo sapiens, UniProt O14727).
T1 sequence (O14727 whole entry): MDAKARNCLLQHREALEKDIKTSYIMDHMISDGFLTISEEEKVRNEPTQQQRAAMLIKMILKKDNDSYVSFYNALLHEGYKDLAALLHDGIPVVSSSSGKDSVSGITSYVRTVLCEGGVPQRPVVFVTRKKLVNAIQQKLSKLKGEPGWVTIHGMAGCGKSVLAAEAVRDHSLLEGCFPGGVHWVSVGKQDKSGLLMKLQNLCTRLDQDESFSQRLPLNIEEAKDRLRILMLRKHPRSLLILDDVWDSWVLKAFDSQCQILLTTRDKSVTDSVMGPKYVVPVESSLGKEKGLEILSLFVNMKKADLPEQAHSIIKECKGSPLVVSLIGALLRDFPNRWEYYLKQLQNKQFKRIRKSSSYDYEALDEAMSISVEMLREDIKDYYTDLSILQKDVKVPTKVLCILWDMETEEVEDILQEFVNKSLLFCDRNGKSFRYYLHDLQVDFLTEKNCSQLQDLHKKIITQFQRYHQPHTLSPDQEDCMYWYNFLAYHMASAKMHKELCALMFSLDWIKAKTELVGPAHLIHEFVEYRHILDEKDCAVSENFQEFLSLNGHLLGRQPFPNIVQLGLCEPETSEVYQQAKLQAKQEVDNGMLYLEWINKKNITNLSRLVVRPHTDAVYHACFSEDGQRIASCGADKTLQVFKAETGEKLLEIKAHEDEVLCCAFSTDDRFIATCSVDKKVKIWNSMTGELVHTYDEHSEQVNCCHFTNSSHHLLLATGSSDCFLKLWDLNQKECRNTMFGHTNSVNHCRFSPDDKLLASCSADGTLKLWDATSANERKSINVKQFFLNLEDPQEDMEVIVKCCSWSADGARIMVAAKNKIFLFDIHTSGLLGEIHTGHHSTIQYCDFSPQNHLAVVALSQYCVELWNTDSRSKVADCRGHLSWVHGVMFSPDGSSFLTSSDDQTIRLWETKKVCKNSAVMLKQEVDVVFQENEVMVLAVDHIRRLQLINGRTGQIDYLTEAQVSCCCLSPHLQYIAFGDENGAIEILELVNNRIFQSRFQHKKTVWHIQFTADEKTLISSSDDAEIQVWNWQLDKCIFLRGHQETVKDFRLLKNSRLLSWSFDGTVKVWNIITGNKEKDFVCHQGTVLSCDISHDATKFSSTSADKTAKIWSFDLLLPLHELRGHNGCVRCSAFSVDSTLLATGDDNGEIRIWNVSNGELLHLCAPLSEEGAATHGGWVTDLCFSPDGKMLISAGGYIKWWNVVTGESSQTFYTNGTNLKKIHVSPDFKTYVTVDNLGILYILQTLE
In kind it is functional.

In assay [2] the target is T2, Histone-lysine N-methyltransferase NSD2 (Homo sapiens, UniProt O96028).
T2 sequence (O96028 whole entry): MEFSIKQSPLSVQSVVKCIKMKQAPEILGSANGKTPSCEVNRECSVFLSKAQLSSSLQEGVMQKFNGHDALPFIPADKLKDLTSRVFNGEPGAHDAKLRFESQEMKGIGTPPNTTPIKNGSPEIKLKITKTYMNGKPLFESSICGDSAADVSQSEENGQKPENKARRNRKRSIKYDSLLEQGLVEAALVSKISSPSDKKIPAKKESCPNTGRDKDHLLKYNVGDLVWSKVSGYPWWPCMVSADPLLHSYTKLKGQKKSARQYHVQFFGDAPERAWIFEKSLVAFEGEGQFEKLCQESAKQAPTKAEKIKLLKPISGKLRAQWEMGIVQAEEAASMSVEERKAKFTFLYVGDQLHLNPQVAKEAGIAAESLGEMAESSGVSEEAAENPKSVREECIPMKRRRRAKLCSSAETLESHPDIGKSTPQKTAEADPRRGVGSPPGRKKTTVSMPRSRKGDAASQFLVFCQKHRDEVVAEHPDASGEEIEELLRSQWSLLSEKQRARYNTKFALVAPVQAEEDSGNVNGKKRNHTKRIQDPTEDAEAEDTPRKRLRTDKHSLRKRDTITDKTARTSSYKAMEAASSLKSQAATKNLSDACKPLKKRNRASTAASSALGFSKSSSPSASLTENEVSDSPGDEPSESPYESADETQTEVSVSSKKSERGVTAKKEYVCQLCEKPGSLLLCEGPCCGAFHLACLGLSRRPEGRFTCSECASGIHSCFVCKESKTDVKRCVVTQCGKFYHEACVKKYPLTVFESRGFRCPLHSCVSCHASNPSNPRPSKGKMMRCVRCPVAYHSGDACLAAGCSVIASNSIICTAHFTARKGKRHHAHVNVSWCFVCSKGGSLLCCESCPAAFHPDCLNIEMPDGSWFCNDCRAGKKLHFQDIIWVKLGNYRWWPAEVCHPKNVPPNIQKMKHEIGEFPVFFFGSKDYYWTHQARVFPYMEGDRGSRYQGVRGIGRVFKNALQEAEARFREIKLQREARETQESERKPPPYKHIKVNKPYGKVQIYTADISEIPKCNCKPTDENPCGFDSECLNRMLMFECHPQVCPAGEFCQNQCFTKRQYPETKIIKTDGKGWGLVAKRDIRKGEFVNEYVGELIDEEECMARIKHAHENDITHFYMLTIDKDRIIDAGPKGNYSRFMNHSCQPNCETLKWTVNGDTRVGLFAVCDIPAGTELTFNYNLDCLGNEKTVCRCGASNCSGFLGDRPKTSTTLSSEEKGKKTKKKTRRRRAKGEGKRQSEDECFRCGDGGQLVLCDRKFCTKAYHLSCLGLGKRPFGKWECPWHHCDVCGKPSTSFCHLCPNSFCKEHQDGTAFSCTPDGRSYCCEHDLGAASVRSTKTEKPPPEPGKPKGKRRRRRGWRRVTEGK
In kind it is biochemical.

In assay [3] the target is SUMO-activating enzyme (Homo sapiens, UniProt Q9UBT2). The assay is described as follows: inhibitors of in vitro SUMOylation cascade, primary screen, biochemical, HTRF, uHTS (AID 2006). In kind it is protein-complex assay. For orientation: Time-resolved FRET reads energy transfer from a long-lived donor to a nearby acceptor.

Each structure is given as a SMILES string. Active and inactive are the calls of the source. Cut-off read from the data, not from the text of the source, for most assays here: actives have a measured IC50 and inactives only a lower limit.

The term IC50 denotes the concentration at which inhibition is half-maximal. By AC50 is commonly meant the midpoint of the concentration-response curve, whichever way the signal moves.

SUMO-activating enzyme, sequence (Q9UBE0 whole entry): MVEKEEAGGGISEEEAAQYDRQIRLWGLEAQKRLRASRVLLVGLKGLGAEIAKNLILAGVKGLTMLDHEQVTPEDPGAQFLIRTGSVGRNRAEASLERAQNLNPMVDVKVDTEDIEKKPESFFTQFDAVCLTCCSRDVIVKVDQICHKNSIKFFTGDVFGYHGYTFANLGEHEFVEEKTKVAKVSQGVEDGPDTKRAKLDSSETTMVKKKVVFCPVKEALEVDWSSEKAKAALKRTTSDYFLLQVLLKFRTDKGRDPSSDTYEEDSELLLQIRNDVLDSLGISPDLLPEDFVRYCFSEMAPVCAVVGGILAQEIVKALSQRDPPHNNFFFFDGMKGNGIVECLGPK
SUMO-activating enzyme, sequence (Q9UBT2 whole entry): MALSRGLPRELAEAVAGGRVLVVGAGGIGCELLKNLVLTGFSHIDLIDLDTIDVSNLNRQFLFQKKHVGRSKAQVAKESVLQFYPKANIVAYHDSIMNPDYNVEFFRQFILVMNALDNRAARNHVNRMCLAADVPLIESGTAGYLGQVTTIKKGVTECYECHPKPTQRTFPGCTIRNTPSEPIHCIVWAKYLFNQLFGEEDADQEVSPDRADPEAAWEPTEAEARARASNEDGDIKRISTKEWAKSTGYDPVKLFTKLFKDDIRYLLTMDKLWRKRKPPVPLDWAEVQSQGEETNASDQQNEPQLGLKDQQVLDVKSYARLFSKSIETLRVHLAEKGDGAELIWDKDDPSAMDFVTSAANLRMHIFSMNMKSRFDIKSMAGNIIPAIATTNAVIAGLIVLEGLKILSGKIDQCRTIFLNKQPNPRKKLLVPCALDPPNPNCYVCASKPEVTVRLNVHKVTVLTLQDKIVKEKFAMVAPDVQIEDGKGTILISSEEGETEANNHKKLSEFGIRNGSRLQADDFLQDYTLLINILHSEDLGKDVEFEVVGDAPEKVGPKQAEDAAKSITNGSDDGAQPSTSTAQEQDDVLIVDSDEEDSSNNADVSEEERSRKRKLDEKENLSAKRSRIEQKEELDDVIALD

In the case of `COc1ccc(NC(=S)Nc2ccc3nsnc3c2)cc1`, the IC50 in assay [1] was 10.8 µM (active). Also, the AC50 in assay [2] was 3.57 µM (active).

In the case of `CC(C)(C)c1cc[n+](C2=C([N-]S(=O)(=O)c3ccccc3)C(=O)c3ccccc3C2=O)cc1`, in assay [2], the half-maximal activity concentration (AC50) is 2.63 µM (active).

`O=C1C=C(Nc2ccccc2C(=O)O)c2ccccc2C1=O`: the concentration for half-maximal inhibition (IC50) in assay [3] is 19.8 µM (active); in assay [1] it was 3.84 µM (active).
